pIC50: −log10 of the molar value.
System: MOLT-4 cells
Assay: Cell proliferation activity in MOLT-4 cells (72 h, cell viability luminescence)
Assay type: cell-based, human
Conditions: Homo sapiens, read-out: IC50 for the inhibition of MOLT-4 cell proliferation
Procedure: MOLT-4 cells are acute lymphoblastic leukemia cell lines in humans. The cells were purchased from ATCC. Culture conditions: RPMI-1640+10% FBS+1% penicillin-streptomycin solution. The cells were cultured in a 37° C., 5% CO2 incubator. The cells were plated in a 96-well plate, with 5×10^3 cells/well. After plating, compounds at different concentrations were added and cultured in a 37° C., 5% CO2 incubator for 72 h. After the completion of culture, a reagent (Promega, G7573) for detecting the cell viability was added. The mixture was uniformly mixed for 2 minutes and then incubated at room temperature for 10 minutes. The luminescence signal was detected with a multimode plate reader (BMG, PHERAstar FSX). The luminescence readings were processed using GraphPad Prism 8.0 software and the IC50 values of the compounds for the inhibition of cell proliferation and the maximum inhibition rate were calculated according to formula (2) and formula (3), respectively, wherein Tadministration denotes the cell signal readings obtained after incubation with the compounds for 72 h, and Tvehicle denotes the cell signal readings obtained after incubation with the vehicle control for 72 h.
Calculation of Max inhibition %: after the processing according to formula (2), the inhibition rate of the compounds at the highest concentration was calculated.

Compound | pIC50
Cc1ncsc1-c1ccc([C@H](C)NC(=O)[C@@H]2C[C@@H](O)CN2C(=O)[C@@H](NC(=O)CCCCCC(=O)N2C[C@@H]3C[C@H]2CN3CC[C@H](CSc2ccccc2)Nc2ccc(S(=O)(=O)NC(=O)c3ccc(N4CCN(CC5=C(c6ccc(Cl)cc6F)CCC6(CC6)C5)CC4)cc3)cc2S(=O)(=O)C(F)(F)F)C(C)(C)C)cc1 [Compound 29, (2S,4R)-1-((S)-2-(7-((1S,4S)-5-((R)-3-((4-(N-(4-(4-((6-(4-chloro-2-fluorophenyl)spiro[2.5]oct-5-en-5-yl)methyl)piperazin-1-yl)benzoyl)sulfamoyl)-2-((trifluoromethyl)sulfonyl)phenyl)amino)-4-(phenylthio)butyl)-2,5-diazabicyclo[2.2.1]heptan-2-yl)-7-oxoheptanamido)-3,3-dimethylbutanoyl)-4-hydroxy-N—((S)-1-(4-(4-methylthiazol-5-yl)phenyl)ethyl)pyrrolidine-2-carboxamide] | > 6.30
Cc1ncsc1-c1ccc([C@H](C)NC(=O)[C@@H]2C[C@@H](O)CN2C(=O)[C@@H](NC(=O)CCCCCC(=O)N2C[C@H]3CN(CC[C@H](CSc4ccccc4)Nc4ccc(S(=O)(=O)NC(=O)c5ccc(N6CCN(CC7=C(c8ccc(Cl)cc8F)CCCCC7)CC6)cc5)cc4S(=O)(=O)C(F)(F)F)C[C@H]3C2)C(C)(C)C)cc1 [Compound 39, cis-(2S,4R)-1-((S)-2-(7-(5-((R)-3-((4-(N-(4-(4-((2-(4-chloro-2-fluorophenyl)cyclohept-1-en-1-yl)methyl)piperazin-1-yl)benzoyl)sulfamoyl)-2-((trifluoromethyl)sulfonyl)phenyl)amino)-4-(phenylthio)butyl)hexahydropyrrolo[3,4-c]pyrrol-2(1H)-yl)-7-oxoheptanamido)-3,3-dimethylbutanoyl)-4-hydroxy-N—((S)-1-(4-(4-methylthiazol-5-yl)phenyl)ethyl)pyrrolidine-2-carboxamide] | > 6.30
Cc1ncsc1-c1ccc([C@H](C)NC(=O)[C@@H]2C[C@@H](O)CN2C(=O)[C@@H](NC(=O)CCCCCCC(=O)N2C[C@@H]3C[C@H]2CN3CC[C@H](CSc2ccccc2)Nc2ccc(S(=O)(=O)NC(=O)c3ccc(N4CCN(CC5=C(c6ccc(Cl)cc6)CCCCC5)CC4)cc3)cc2S(=O)(=O)C(F)(F)F)C(C)(C)C)cc1 [Compound 34, (2S,4R)-1-((S)-2-(8-((1S,4S)-5-((R)-3-((4-(N-(4-(4-((2-(4-chlorophenyl)cyclohept-1-en-1-yl)methyl)piperazin-1-yl)benzoyl)sulfamoyl)-2-((trifluoromethyl)sulfonyl)phenyl)amino)-4-(phenylthio)butyl)-2,5-diazabicyclo[2.2.1]heptan-2-yl)-8-oxooctanamido)-3,3-dimethylbutanoyl)-4-hydroxy-N—((S)-1-(4-(4-methylthiazol-5-yl)phenyl)ethyl)pyrrolidine-2-carboxamide] | > 6.30
Cc1ncsc1-c1ccc([C@H](C)NC(=O)[C@@H]2C[C@@H](O)CN2C(=O)[C@@H](NC(=O)CCCCCC(=O)N2C[C@H]3CN(CC[C@H](CSc4ccccc4)Nc4ccc(S(=O)(=O)NC(=O)c5ccc(N6CCN(CC7=C(c8ccc(Cl)cc8)CCCCC7)CC6)cc5)cc4S(=O)(=O)C(F)(F)F)C[C@H]3C2)C(C)(C)C)cc1 [Compound 41, cis-(2S,4R)-1-((S)-2-(7-(5-((R)-3-((4-(N-(4-(4-((2-(4-chlorophenyl)cyclohept-1-en-1-yl)methyl)piperazin-1-yl)benzoyl)sulfamoyl)-2-((trifluoromethyl)sulfonyl)phenyl)amino)-4-(phenylthio)butyl)hexahydropyrrolo[3,4-c]pyrrol-2(1H)-yl)-7-oxoheptanamido)-3,3-dimethylbutanoyl)-4-hydroxy-N—((S)-1-(4-(4-methylthiazol-5-yl)phenyl)ethyl)pyrrolidine-2-carboxamide] | > 6.30
Cc1ncsc1-c1ccc([C@H](C)NC(=O)[C@@H]2C[C@@H](O)CN2C(=O)[C@@H](NC(=O)CCCCCCC(=O)N2C[C@H]3CN(CC[C@H](CSc4ccccc4)Nc4ccc(S(=O)(=O)NC(=O)c5ccc(N6CCN(CC7=C(c8ccc(Cl)cc8)CCCCC7)CC6)cc5)cc4S(=O)(=O)C(F)(F)F)C[C@H]3C2)C(C)(C)C)cc1 [Compound 42, cis-(2S,4R)-1-((S)-2-(8-(5-((R)-3-((4-(N-(4-(4-((2-(4-chlorophenyl)cyclohept-1-en-1-yl)methyl)piperazin-1-yl)benzoyl)sulfamoyl)-2-((trifluoromethyl)sulfonyl)phenyl)amino)-4-(phenylthio)butyl)hexahydropyrrolo[3,4-c]pyrrol-2(1H)-yl)-8-oxooctanamido)-3,3-dimethylbutanoyl)-4-hydroxy-N—((S)-1-(4-(4-methylthiazol-5-yl)phenyl)ethyl)pyrrolidine-2-carboxamide] | > 6.30
Cc1ncsc1-c1ccc([C@H](C)NC(=O)[C@@H]2C[C@@H](O)CN2C(=O)[C@@H](NC(=O)CCCCCC(=O)N2CC3CC2CN3CC[C@H](CSc2ccccc2)Nc2ccc(S(=O)(=O)NC(=O)c3ccc(N4CCN(CC5=C(c6ccc(Cl)cc6)CCC(C)(C)C5)CC4)cc3)cc2S(=O)(=O)C(F)(F)F)C(C)(C)C)cc1 (stereo partly drawn) [Compound 2, (2S,4R)-1-((2S)-2-(7-(5-((R)-3-((4-(N-(4-(4-((4′-chloro-4,4-dimethyl-3,4,5,6-tetrahydro-[1,1′-biphenyl]-2-yl)methyl)piperazin-1-yl)benzoyl)sulfamoyl)-2-((trifluoromethyl)sulfonyl)phenyl)amino)-4-(phenylthio)butyl)-2,5-diazabicyclo[2.2.1]heptan-2-yl)-7-oxoheptanamido)-3,3-dimethylbutanoyl)-4-hydroxy-N—((S)-1-(4-(4-methylthiazol-5-yl)phenyl)ethyl)pyrrolidine-2-carboxamide] | > 6.30
Cc1ncsc1-c1ccc([C@H](C)NC(=O)[C@@H]2C[C@@H](O)CN2C(=O)[C@@H](NC(=O)CCCCCC(=O)N2CCN(CC[C@H](CSc3ccccc3)Nc3ccc(S(=O)(=O)NC(=O)c4ccc(N5CCN(CC6=C(c7ccc(Cl)cc7F)CCC7(CC7)C6)CC5)cc4)cc3S(=O)(=O)C(F)(F)F)CC2)C(C)(C)C)cc1 [Compound 31, (2S,4R)-1-((S)-2-(7-(4-((R)-3-((4-(N-(4-(4-((6-(4-chloro-2-fluorophenyl)spiro[2.5]oct-5-en-5-yl)methyl)piperazin-1-yl)benzoyl)sulfamoyl)-2-((trifluoromethyl)sulfonyl)phenyl)amino)-4-(phenylthio)butyl)piperazin-1-yl)-7-oxoheptanamido)-3,3-dimethylbutanoyl)-4-hydroxy-N—((S)-1-(4-(4-methylthiazol-5-yl)phenyl)ethyl)pyrrolidine-2-carboxamide] | > 6.30
Cc1ncsc1-c1ccc([C@H](C)NC(=O)[C@@H]2C[C@@H](O)CN2C(=O)[C@@H](NC(=O)CCCCCC(=O)N2CCN(CC[C@H](CSc3ccccc3)Nc3ccc(S(=O)(=O)NC(=O)c4ccc(N5CCN(CC6=C(c7ccc(Cl)cc7F)CCC(C)(C)C6)CC5)cc4)cc3S(=O)(=O)C(F)(F)F)CC2)C(C)(C)C)cc1 [Compound 12, (2S,4R)-1-((S)-2-(7-(4-((R)-3-((4-(N-(4-(4-((4′-chloro-2′-fluoro-4,4-dimethyl-3,4,5,6-tetrahydro-[1,1′-biphenyl]-2-yl)methyl)piperazin-1-yl)benzoyl)sulfamoyl)-2-((trifluoromethyl)sulfonyl)phenyl)amino)-4-(phenylthio)butyl)piperazin-1-yl)-7-oxoheptanamido)-3,3-dimethylbutanoyl)-4-hydroxy-N—((S)-1-(4-(4-methylthiazol-5-yl)phenyl)ethyl)pyrrolidine-2-carboxamide] | > 6.30
Cc1ncsc1-c1ccc([C@H](C)NC(=O)[C@@H]2C[C@@H](O)CN2C(=O)[C@@H](NC(=O)CCCCCC(=O)N2CCN(CC[C@H](CSc3ccccc3)Nc3ccc(S(=O)(=O)NC(=O)c4ccc(N5CCN(CC6=C(c7ccc(C#N)cc7)CCC(C)(C)C6)CC5)cc4)cc3S(=O)(=O)C(F)(F)F)CC2)C(C)(C)C)cc1 [Trifluoroacetate of compound 4, (2S,4R)-1-((S)-2-(7-(4-((R)-3-((4-(N-(4-(4-((4′-cyano-4,4-dimethyl-3,4,5,6-tetrahydro-[1,1′-biphenyl]-2-yl)methyl)piperazin-1-yl)benzoyl)sulfamoyl)-2-((trifluoromethyl)sulfonyl)phenyl)amino)-4-(phenylthio)butyl)piperazin-1-yl)-7-oxoheptanamido)-3,3-dimethylbutanoyl)-4-hydroxy-N—((S)-1-(4-(4-methylthiazol-5-yl)phenyl)ethyl)pyrrolidine-2-carboxamide] | > 6.30
Cc1ncsc1-c1ccc([C@H](C)NC(=O)[C@@H]2C[C@@H](O)CN2C(=O)[C@@H](NC(=O)CCCCCC(=O)N2CCN(CC[C@H](CSc3ccccc3)Nc3ccc(S(=O)(=O)NC(=O)c4ccc(N5CCN(C/C6=C(\c7ccc(Cl)cc7)CCCCCC6)CC5)cc4)cc3S(=O)(=O)C(F)(F)F)CC2)C(C)(C)C)cc1 [Compound 43, (2S,4R)-1-((S)-2-(7-(4-((R)-3-((4-(N-(4-(4-((2-(4-chlorophenyl)cyclooct-1-en-1-yl)methyl)piperazin-1-yl)benzoyl)sulfamoyl)-2-((trifluoromethyl)sulfonyl)phenyl)amino)-4-(phenylthio)butyl)piperazin-1-yl)-7-oxoheptanamido)-3,3-dimethylbutanoyl)-4-hydroxy-N—((S)-1-(4-(4-methylthiazol-5-yl)phenyl)ethyl)pyrrolidine-2-carboxamide] | > 6.30

Reference: patent US20240408085A1, “COMPOUND FOR DEGRADATION OF BCL-2 FAMILY PROTEINS AND MEDICAL APPLICATION THEREOF” (XIZANG HAISCO PHARMACEUTICAL CO., LTD., priority 2021, published 2024)
